# Experiments:
# BALB/c mice [1] = assay: Cytokine levels in BALF (ELISA) after intranasal instillation; settings: for cytokine levels in BALF at higher concentrations of the compound: instilled with GL-67:pCFA-CAT; for inhibition of cytokine production in the lung: without affecting gene expression
# Protocol: Cytokine levels in the mouse BALF were quantitated using enzyme-linked immunosorbent assay (ELISA) kits as specified by the manufacturers. IFN-γ, TNF-α, IL1-α, IL-1β, IL-10 and IL-6 ELISA kits were from Genzyme Corporation, mKC, MIP-2 and GM-CSF ELISA kits were from R&D Systems, and Leukotriene B4 ELISA kit was from Perseptive Diagnostics.
# BALB/c mice were instilled intranasally with 100 μl of complex as described. […] The animals were euthanized and their lungs were lavaged 24 h post-instillation using phosphate-buffered saline (PBS). The recovered BALF were centrifuged at 1,500 rpm for 4 min, and the resulting supernatants were removed and frozen at −80° C. for subsequent cytokine analysis. The cell pellets were resuspended in PBS for microscopic determination of cell number and cell types.
# Separate groups of mice were instilled with either (m)pDNA or unmethylated pDNA alone, or vehicle, and their bronchoalveolar lavage fluids collected for analysis at 24 h post-treatment.
# The animals were euthanized and their lungs were lavaged 24 h post-instillation using phosphate-buffered saline (PBS). The recovered BALF were centrifuged at 1,500 rpm for 4 min., and the resulting supernatants were removed and frozen at −80° C. for subsequent cytokine analysis.
# Cytokine levels were quantitated using enzyme-linked immunosorbent assay (ELISA) kits as specified by the manufacturer (Genzyme Corporation, Framingham, MA).
# BALB/c mice [2] = assay: Lung histopathology after intranasal instillation; settings: 2 days post-instillation, blinded
# Excerpt: The histopathological changes within BALB/c mouse lungs following administration of either cationic lipid alone, pDNA alone, or cationic lipid:pDNA complexes were also examined. […] Mice were sacrificed 2 days post-instillation and the lungs were processed for histological examination in a blinded manner.
# Lungs were fixed by inflation at 30 cm of H2O pressure with 2% paraformaldehyde and 0.2% glutaraldehyde. Representative samples were taken from each lung lobe, embedded in glycol methacrylate, sectioned and stained with hematoxylin and eosin. Histopathology on the lung was evaluated in a blinded fashion and graded subjectively using a scale of 0 to 4, with a score of 0 indicating no abnormal findings and a score of 4 reflecting severe changes with intense infiltrates See Scheule et al., Hum.
# mouse spleen cells [3] = assay: IL-12 induction from mouse spleen cells; type: cell-based; settings: for levels of IL-12 induction by GL-67:pCFA-CAT: addition of 10 μM of chloroquine or 1 μM of quinacrine; for levels of IL-12 induction by pCFA-CAT: co-addition of 10 μM of chloroquine or 1 μM of quinacrine, 24 hours
# Protocol: 6-8 week old 8ALB/c mice were sacrificed by cervical dislocation. Spleens were excised and placed in sterile PBS on ice. To prepare single cell suspensions, the spleens were placed in a tissue culture dish in PBS and crushed between the frosted edges of two sterile microscope slides. Cells were pelleted by centrifugation at 1200 rpm for 8 min., and washed 3 times in PBS. After the final wash, the cells were resuspended in RPMI medium supplemented with 25 mM HEPES buffer, 10% fetal bovine serum, 2 mM L-glutamine, and 50 μM 2-mercaptoethanol (2-ME). The resuspended cells were then plated at 6×10^6 cells/ml/well in 24-well culture plates. Supernatant were collected 24 hr after addition of oligonucleotides or plasmid DNA for the measurement of cytokine (IL-12) production.
# mouse spleen cells [4] = settings: 10 μM chloroquine or 1 μM quinacrine
# Protocol: Another strategy to reduce the stimulatory properties of the pDNA vector is to use specific inhibitors of 1 he CpG signaling pathway. […] These compounds were tested for their ability to inhibit the stimulatory properties of pDNA and cationic lipid-pDNA complexes in vitro and in the mouse lung.
SMILES,"levels of TNF-α, IFN-γ, IL-6 and murine KC (these four cytokines) in the BALF (BALB/c mice [1]; 24 h after intranasal instillation of the component alone)",contribution to the cytokine induction in the BALF (BALB/c mice [1]; with the exception of KC),"lung inflammation (histopathology, score on a scale from 0 to 4) (BALB/c mice [2])",cytokine levels in BALF at higher concentrations of the compound (BALB/c mice [1]),inhibition of cytokine production in the lung (BALB/c mice [1]) [%],induction of IL-12 production from mouse spleen cells in vitro (mouse spleen cells [3]),levels of IL-12 induction by GL-67:pCFA-CAT (mouse spleen cells [3]),levels of IL-12 induction by pCFA-CAT (mouse spleen cells [3]),effects on expression of the CAT reporter gene (mouse spleen cells [4]),effects on cell viability (mouse spleen cells [4])
CC(C)CCCC(C)C1CCC2C3CC=C4CC(OC(=O)N(CCCN)CCCCNCCCN)CCC4(C)C3CCC12C (stereo not shown) [GL-67],low levels,did not contribute significantly,scored slightly lower,–,–,–,–,–,–,–
CCN(CC)CCCC(C)Nc1ccnc2cc(Cl)ccc12 (stereo not shown) [chloroquine],–,–,–,did not further decrease,50,greatly reduced,near background levels,near background levels,no discernible effects,–
CCN(CC)CCCC(C)Nc1c2ccc(Cl)cc2nc2ccc(OC)cc12 (stereo not shown) [quinacrine],–,–,–,did not further decrease,50,greatly reduced,near background levels,near background levels,no discernible effects,no discernible effects
